The experiment addresses Nischarin / imidazoline I1 receptor (Rattus norvegicus). The experiment is described as follows: Displacement of [125I]p-iodoclonidine from imidazoline receptor I-1 in rat pheochromocytoma cells. For orientation: Loss of bound radioactivity is the signal in a displacement assay; it reports binding, not function.
`c1ccc(CCC2=NCCN2)cc1` [2-Phenethyl-4,5-dihydro-1H-imidazole]: the affinity, expressed as Ki, was 3.71 µM.

For the molecule `CC(CC1=NCCN1)c1ccccc1` (stereo not given), the affinity, expressed as Ki, was 6.03 µM.

Turning to `C[C@H](CC1=NCCN1)c1ccccc1`, the Ki (as a rule, a dissociation constant, usually derived from enzyme kinetics or from competition with a known ligand) was 0.589 µM.

Regarding `C[C@@H](CC1=NCCN1)c1ccccc1`, affinity was put at a Ki of 7.24 µM.

As for `CC(Oc1ccccc1)C1=NCCN1` (stereo not given), the affinity corresponds to a Ki of 0.309 µM.

The values above are taken from BindingDB's records for doi:10.1021/jm021113r (University of Camerino, 2003).
